Data published in EP1928474B1, “USE OF GLUCOSYLATED HYDROXYSTILBENES FOR THE PREVENTION AND TREATMENT OF EYE PATHOLOGIES” (Tubilux Pharma S.P.A., priority 2005, dated 2007).

Columns and labels:
[1] = tested on: inducible nitric-synthesase oxide (iNOS); assay: iNOS production by hTERT fibroblasts stimulated with cytokines (IL-1 + IFN-γ), iNOS-positive cells by flow cytometry; assay type: cell-based, human; conditions: for number of iNOS-positive fibroblasts: pre-incubation at 1.25 - 2.5 - 5 µg/ml, then IL-1 3 ng/ml + IFN-γ 250 U/ml, 48 h, Figure 1
Experimental: The study aimed at determining the effects of treatment with piceide and resveratrol on the inducible nitric-synthesase oxide (iNOS) by corneal fibroblasts immortalised with human Telomerase Reverse Transcriptase (hTERT fibroblasts), stimulated with interferon-γ (IFN-γ) and interleukine-1 (IL-1).
Some hTERT fibroblasts were maintained in a DMEM culture medium. They were subsequently re-suspended at a concentration of 1x10^6 and placed on 24 mm-well plates. The cells were incubated at a temperature of 37°C with piceide or resveratrol at doses of 1.25 - 2.5 - 5 µg/ml. After 15 minutes the following were added to the wells containing the cells: IL-1 at a concentration of 3 ng/ml, and IFN-γ at a concentration of 250 U/ml. After a further 48 h of incubation, the fibroblasts were washed and re-suspended in PBS at a concentration of 1x10^6, in order to determine the iNOS-positive cells by means of flow cytometry.
The cells treated in the aforesaid way were permeabilised by treatment with 70% ethanol and then labelled with 5 µg/ml of a human anti-iNOS antibody labelled with FITC. After; colouring, the cells were fixed in paraformaldehyde and analysed by means of a FACScan cytofluorimeter.

hTERT fibroblasts [2] = assay: Differentiation of TGF-β-stimulated hTERT fibroblasts into myofibroblasts, α-SMA-positive cells by flow cytometry; assay type: cell-based, human; conditions: 5 µg/ml; for percentage of cells capable of expressing α-SMA: sub-optimal dose (0.1 ng/ml) of TGF-β, Figure 2
Experimental: The study aimed at determining the effects of piceide treatment on the differentiation of corneal fibroblasts immortalised with human inverse telomerase transcriptase (hTERT fibroblasts) stimulated with sub-optimal, optimal or above-optimal doses of TGF-β. Fibroblast differentiation into myofibroblasts was determined by examining whether there was any α-smooth muscle actin (α-SMA).
Some hTERT fibroblasts maintained in a DMEM culture were re-suspended at a concentration of 1x10^6 and placed on 24mm-well plates. The cells were incubated at a temperature of 37°C with piceide or resveratrol at doses of 5 µg/ml. After 24 h the cells were stimulated with optimal (1ng/ml), sub-optimal (0.1 ng/ml) and above-optimum (10 ng ml) doses of TGF-β. After 3, 5 and 10 days of incubation, the fibroblasts were washed and re-suspended in PBS at a concentration of 1x10^6, in order to determine the α-SMA-positive cells by means of flow cytometry.
The cells treated in the aforesaid way were permeabilised by treatment with 70% ethanol and then labelled with 5µg/ml of a human anti-α-SMA antibody labelled with FITC. After colouring, the cells were fixed in paraformaldehyde and analysed by a means of a FACScan cytofluorimeter.

iNOS = iNOS production by fibroblasts of normal corneal origin stimulated with IL-1; assay type: cell-based; conditions: equal doses
Text: As will be illustrated in greater detail in the experimental section below, piceide - at non-toxic levels - blocks iNOS production and its activity is correlated to the dose. […] This different activity is probably due to the different chemical structure of the two molecules and to the consequent different biological characteristics, among which the greater bioavailability of piceide at the cell level is important. Another anti-inflammatory effect of piceide, linked to what has been said above, lies in its capacity to inhibit cyclooxygenase synthesis and thus the synthesis and release of pro-inflammatory prostaglandins.

[3] = tested on: fibroblasts of normal corneal origin; assay: Differentiation of TGF-β-stimulated fibroblasts of normal corneal origin into myofibroblasts, α-SMA expression; assay type: cell-based
Text: As reported in detail in the experimental section below, piceide has - unlike resveratrol - unexpectedly proven to be capable of modulating the capacity of TGF-β to cause fibroblast differentiation into myofibroblasts.

[4] = tested on: human liver myofibroblasts; conditions: literature; cited from earlier work
hTERT fibroblasts [5] = assay: Toxicity for hTERT fibroblasts at the doses assayed; conditions: doses of the differentiation study, 5 µg/ml

| SMILES | decrease in iNOS-positive fibroblasts compared to resveratrol ([1]; equal doses 1.25 - 2.5 - 5 µg/ml, differences statistically significant at each point) | number of iNOS-positive fibroblasts [1] | percentage of α-SMA+ cells (hTERT fibroblasts [2]; above-optimal dose (10 ng/ml) of TGF-β, 5th day, Figure 4) | percentage of α-SMA+ cells (hTERT fibroblasts [2]; above-optimal dose (10 ng/ml) of TGF-β, 10th day, Figure 4) | percentage of α-SMA-positive cells (hTERT fibroblasts [2]; optimal dose (1 ng/ml) of TGF-β, all three time intervals (3, 5, 10 days), Figure 3) | percentage of cells capable of expressing α-SMA (hTERT fibroblasts [2]; 5th day) | percentage of cells capable of expressing α-SMA (hTERT fibroblasts [2]; 10th day) | percentage of cells capable of expressing α-SMA (hTERT fibroblasts [2]; 3 days, compared to non-treated) | inhibition of iNOS production compared to resveratrol (iNOS) | TGF-β activity assessed by α-SMA expression ([3]; fibroblasts of normal corneal origin, sub-optimal concentration of TGF-β) | α-SMA expression ([3]; normal fibroblasts, above-optimal concentration of TGF-β) | effect on liver myofibroblasts [4] | toxicity (hTERT fibroblasts [5]) | percentage of α-SMA+ cells (hTERT fibroblasts [2]; above-optimal dose of TGF-β, time not stated) | percentage of α-SMA+ cells (hTERT fibroblasts [2]; optimal dose of TGF-β, time not stated) | percentage of α-SMA+ cells (hTERT fibroblasts [2]; sub-optimal dose of TGF-β, time not stated) | α-SMA expression [4] |
| --- | --- | --- | --- | --- | --- | --- | --- | --- | --- | --- | --- | --- | --- | --- | --- | --- | --- |
| OC[C@H]1O[C@@H](Oc2cc(O)cc(/C=C/c3ccc(O)cc3)c2)[C@H](O)[C@@H](O)[C@@H]1O [piceide, resveratrol-3-O-β-mono-D-glucoside] | greater | dose-dependent decrease | percentage decrease in fibroblasts which was already significant | brought the number of fibroblasts back to physiological conditions | did not lead to any significant percentage variations | decreased, although still remaining statistically significant | no longer any significant percentages of cells able to express α-SMA | statistically significant increase | more effective | increase growth factor activity | decrease in α-SMA expression | did not show any significant effects | does not appear toxic | – | – | – | – |
| Oc1ccc(/C=C/c2cc(O)cc(O)c2)cc1 [resveratrol, reference compound] | – | decrease | – | – | – | – | – | – | – | – | – | able to deactivate human liver myofibroblasts | – | did not lead to any statistically significant variation | did not lead to any statistically significant variation | did not lead to any statistically significant variation | reduction |
| Oc1cc(O)cc(/C=C/c2ccc(O)c(O)c2)c1 [trans-piceatannol, trans-3,4',3',5-tetrahydroxystilbene] | – | – | – | – | – | – | – | – | – | – | – | neither trans-piceide nor another hydroxystilbene - trans-piceatannol (trans-3,4',3',5-tetrahydroxystilbene) - have shown any effect | – | – | – | – | – |
